Assay results as given in US8889705B2, “Noscapine analogs and their use in treating cancers” (Emory University, priority 2007, dated 2014).

Legend:
tubulin [1] = conditions: even at 100 μM (Zhou et al., 2003); cited from earlier work
tubulin [2] = target: T1, tubulin; conditions: values with literature reference [18], [12], [43]; read-out: dissociation constant (Kd) for binding to tubulin; cited from earlier work
T1 construct: other: 2 μM tubulin, 45 min at 37° C., double reciprocal plot; rate and extent of tubulin polymerization; other: 25 μM or 100 μM

MCF-7 cells [3] = assay: Sulforhodamine B cell proliferation assay; format: cell-based, human; conditions: Homo sapiens, MCF7, 72 h, MCF-7, 72 hours, SRB
Experimental: (§1) Sulforhodamine B (SRB) assay: The cell proliferation assay was performed in 96-well plates as described previously. Adherent cells (MCF-7 and MDA-MB-231) were seeded in 96-well plates at a density of 5×10^3 cells per well. They were treated with increasing concentrations of the halogenated analogs the next day while in log-phase growth. After 72 hours of drug treatment, cells were fixed with 50% trichloroacetic acid and stained with 0.4% sulforhodamine B dissolved in 1% acetic acid. After 30 minutes, cells were then washed with 1% acetic acid to remove the unbound dye. The protein-bound dye was extracted with 10 mM Tris base to determine the optical density at 564-nm wavelength.

CEM cells = assay: In vitro cell proliferation MTS assay; format: cell-based; conditions: Homo sapiens, CCRF-CEM, 72 hours
Experimental: (§2) Suspension cells (CEM, CEMNLB100 and CEM/VM-1-5) were cultured in RPMI-1640 media containing 10% FBS and then seeded into 96-well plates at a density of 5×10^3 cells per well and were treated with increasing gradient concentrations of 9-nitro-nos for 72 hours. Measurement of cell proliferation was performed colorimetrically by 3-(4,5-dimethylthiazol-2-yl)-5-(3-carboxymethoxyphenyl)-2-(4-sulphophenyl)-2H-tetrazolium, inner salt (MTS) assay, using the CellTiter96 AQueous One Solution Reagent (Promega, Madison, Wis.). Cells were exposed to MTS for 3 hours and absorbance was measured using a microplate reader (Molecular Devices, Sunnyvale, Calif.) at an optical density (OD) of 490 nm. The percentage of cell survival as a function of drug concentration for both the assays was then plotted to determine the IC50 value, which stands for the drug concentration needed to prevent cell proliferation by 50%.
as §2, with “(CEM)” for “(CEM, CEMNLB100 and CEM/VM-1-5)”, “were” for “were cultured in RPMI-1640 media containing 10% FBS and then”, “increasing” for “increasing gradient”, “all halogenated analogs” for “9-nitro-nos”

MDA-MB-231 cells = assay: Sulforhodamine B cell proliferation assay; format: cell-based; conditions: Homo sapiens; MDA-MB-231, 72 hours, SRB
Experimental: as §1

MCF-7 cells [4] = assay: Cell cycle analysis (propidium iodide, flow cytometry); format: cell-based, human; conditions: MCF-7, 25 μM, mean ± S.E.M.
Experimental: The flow cytometric evaluation of the cell cycle status was performed as described previously. Briefly, 2×10^6 cells were centrifuged, washed twice with ice-cold PBS, and fixed in 70% ethanol. Tubes containing the cell pellets were stored at 4° C. for at least 24 hours. Cells were then centrifuged at 1000×g for 10 min and the supernatant was discarded. The pellets were washed twice with 5 ml of PBS and then stained with 0.5 ml of propidium iodide (0.1% in 0.6% Triton-X in PBS) and 0.5 ml of RNase A (2 mg/ml) for 45 minutes in dark. Samples were then analyzed on a FACSCalibur flow cytometer (Beckman Coulter Inc., Fullerton, Calif.).

CEM/VLB100 cells = conditions: CEM/VLB100 (Beck and Cirtain, 1982); cited from earlier work
CEM/VM-1-5 cells = conditions: CEM/VM-1-5 (Morgan et al., 2000); cited from earlier work

COc1ccc2c(c1OC)C(=O)O[C@@H]2[C@H]1c2c(cc3c(c2OC)OCO3)CCN1C [Nos, (S)-6,7-dimethoxy-3-((R)-4-methoxy-6-methyl-5,6,7,8-tetrahydro[1,3]-dioxolo-[4,5-g]isoquinolin-5-yl)isobenzo-furan-1(3H)-one, reference compound]
microtubule polymerization upon binding tubulin (tubulin [1]): does not significantly promote or inhibit microtubule polymerization | Kd (tubulin [2]): 144 ± 2.8 µM | IC50 (MCF-7 cells [3]): 39.6 ± 2.2 µM | IC50 (CEM cells): 16.6 ± 2.4 µM | IC50 (MDA-MB-231 cells): 36.3 ± 1.8 µM | G0/G1 (MCF-7 cells [4]; 0 h): 54.8 ± 0.03% | G2/M (MCF-7 cells [4]; 0 h): 29.9 ± 2.2% | S (MCF-7 cells [4]; 0 h): 13.2 ± 0.2% | Sub-G1 (MCF-7 cells [4]; 0 h): 0.2 ± 0.03% | G0/G1 (MCF-7 cells [4]; 24 h): 18.3 ± 3.3% | G2/M (MCF-7 cells [4]; 24 h): 50.2 ± 3.6% | S (MCF-7 cells [4]; 24 h): 3.4 ± 0.8% | Sub-G1 (MCF-7 cells [4]; 24 h): 10.2 ± 1.2% | G0/G1 (MCF-7 cells [4]; 48 h): 19.8 ± 1.9% | G2/M (MCF-7 cells [4]; 48 h): 28.07 ± 0.2% | S (MCF-7 cells [4]; 48 h): 4.1 ± 0.6% | Sub-G1 (MCF-7 cells [4]; 48 h): 36.8 ± 3.7% | G0/G1 (MCF-7 cells [4]; 72 h): 20.5 ± 0.2% | G2/M (MCF-7 cells [4]; 72 h): 26.3 ± 0.2% | S (MCF-7 cells [4]; 72 h): 7.06 ± 0.2% | Sub-G1 (MCF-7 cells [4]; 72 h): 36.9 ± 0.2%

CC[C@]1(O)C[C@@H]2CN(CCc3c([nH]c4ccccc34)[C@@](C(=O)OC)(c3cc4c(cc3OC)N(C)[C@H]3[C@@](O)(C(=O)OC)[C@H](OC(C)=O)[C@]5(CC)C=CCN6CC[C@]43[C@@H]65)C2)C1 [vinblastine]
resistance to vinblastine (CEM/VLB100 cells): 270 fold

COc1cc([C@@H]2c3cc4c(cc3[C@@H](O[C@@H]3O[C@@H]5CO[C@@H](c6cccs6)O[C@H]5[C@H](O)[C@H]3O)[C@H]3COC(=O)[C@H]23)OCO4)cc(OC)c1O [teniposide]
resistance to teniposide (CEM/VM-1-5 cells): 400 fold
